Literature values in patent US20250195458A1, “SHORT-CHAIN FATTY ACIDS FOR CANCER TREATMENT” (priority 2022, published 2025).

Key:
[1] = tested on: pancreatic carcinoma cell lines (Capan-2, AsPC-1, and MiaPaCa-2); conditions: Capan-2, AsPC-1, MiaPaCa-2; literature summary of Example 2
[2] = tested on: human lung cancer cells; conditions: literature summary of Example 2
[3] = tested on: pancreatic cancer; conditions: literature summary of Example 2
[4] = tested on: colorectal cancer cells; conditions: literature summary of Example 2

## CC(=O)O[C@]1(C(C)=O)CC[C@H]2[C@@H]3C[C@H](C)C4=CC(=O)CC[C@]4(C)[C@H]3CC[C@@]21C [Medroxyprogesterone acetate]
[1]
  Proliferation of pancreatic carcinoma cell lines: blocks the proliferation

## CCCC(=O)[O-].[Na+] [Sodium butyrate]
[2]
  Expression levels of P-gp and STAT3 in human lung cancer cells: increases the expression levels of P-gp and STATS3
[3]
  Invasion of pancreatic cancer: hinders the invasion of pancreatic cancer

## CCC(=O)O [Propionate]
[4]
  Anti-tumor effect in colorectal cancer (apoptosis): induces apoptosis in colon cancer
[2]
  Apoptosis and cell cycle arrest, lung cancer: triggering cell apoptosis and cell cycle arrest

## CC(=O)O [Acetate]
[4]
  Anti-tumor effect in colorectal cancer (apoptosis): triggers apoptosis in colorectal cancer cells
